pIC50: −log10 of the molar value.
These molecules were tested against T1, recombinant human GR (Homo sapiens, UniProt P04150) (assay: Human Glucocorticoid Receptor (GR) Assay (fluorescence polarization, Panvera/Invitrogen kit)). Details: fluorescence polarization; GS Red tracer; 2 hours at room temperature; 100% control 10 μM Dexamethasone; read-out: Inhibition of GR binding, IC50.
T1 construct: purchased Panvera/Invitrogen P2812 (kit P2893)
T1 sequence (P04150 1-777): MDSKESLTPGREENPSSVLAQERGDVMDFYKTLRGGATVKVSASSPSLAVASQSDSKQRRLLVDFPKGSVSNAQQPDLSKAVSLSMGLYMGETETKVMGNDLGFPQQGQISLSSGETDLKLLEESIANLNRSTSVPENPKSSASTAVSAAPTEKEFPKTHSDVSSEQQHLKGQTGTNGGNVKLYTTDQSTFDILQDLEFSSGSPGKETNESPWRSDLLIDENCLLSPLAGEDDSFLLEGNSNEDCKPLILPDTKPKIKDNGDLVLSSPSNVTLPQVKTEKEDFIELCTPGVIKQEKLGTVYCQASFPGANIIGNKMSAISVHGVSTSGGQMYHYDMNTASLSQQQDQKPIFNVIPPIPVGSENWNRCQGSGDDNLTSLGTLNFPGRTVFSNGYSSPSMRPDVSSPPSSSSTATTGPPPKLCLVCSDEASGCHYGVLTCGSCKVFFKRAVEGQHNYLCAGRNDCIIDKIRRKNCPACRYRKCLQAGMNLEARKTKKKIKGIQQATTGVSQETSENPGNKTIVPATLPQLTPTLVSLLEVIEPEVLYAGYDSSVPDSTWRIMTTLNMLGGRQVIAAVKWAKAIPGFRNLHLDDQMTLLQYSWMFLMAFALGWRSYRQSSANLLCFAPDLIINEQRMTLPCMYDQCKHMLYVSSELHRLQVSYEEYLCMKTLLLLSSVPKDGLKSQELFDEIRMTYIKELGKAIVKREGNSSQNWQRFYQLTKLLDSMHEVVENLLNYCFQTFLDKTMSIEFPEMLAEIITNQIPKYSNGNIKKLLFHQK
Format: binding
Procedure: Human Glucocorticoid Receptor (GR) Assay
The assay is based on a commercial kit from Panvera/Invitrogen (Part number P2893). The assay technology is fluorescence polarization. […] The GR and Stabilizing Peptide reagents are stored at −70° C. while the GS Red is stored at −20° C. Also included in the kit are 1M DTT (Panvera, Part number P2325, stored at −20° C.) and GR Screening buffer 10× (Panvera, Part number P2814, stored at −70° C. initially but once thawed stored at room temperature). Avoid repeated freeze/thaws for all reagents. The GR Screening buffer 10× comprises 100 mM potassium phosphate, 200 mM sodium molybdate, 1 mM EDTA and 20% DMSO.
0% control was 100% DMSO and 100% control was 10 μM Dexamethasone. Background solution (8 μL; assay buffer 10×, Stabilizing Peptide, DTT and ice cold MQ water) was added to the background wells. GS Red solution (7 μL; assay buffer 10×, Stabilizing Peptide, DTT, GS Red and ice cold water) was added to all wells except background wells. GR solution (7 μL; assay buffer 10×, Stabilizing Peptide, DTT, GR and ice cold water) was added to all wells. The plate was sealed and incubated in a dark at room temperature for 2 hours.

| SMILES | pIC50 |
| --- | --- |
| CCC(=O)O[C@]1(C(=O)SCC(N)=O)CC[C@H]2[C@@H]3CCC4=Cc5c(cnn5-c5ccc(F)cc5)C[C@]4(C)[C@H]3[C@@H](O)C[C@@]21C [Example 13, (1R,3aS,3bS,10aR,10bS,11S,12aS)-{[(2-Amino-2-oxoethyl)thio]carbonyl}-7-(4-fluorophenyl)-11-hydroxy-10a,12a-dimethyl-1,2,3,3a,3b,4,5,7,10,10a,10b,11,12,12a-tetradecahydrocyclopenta[5,6]naphtho[1,2-f]indazol-1-yl propanoate] | 8.51 |
| CCC(=O)O[C@]1(C(=O)SCOC)CC[C@H]2[C@@H]3CCC4=Cc5c(cnn5-c5ccc(F)cc5)C[C@]4(C)[C@H]3[C@@H](O)C[C@@]21C [Example 14, (1R,3aS,3bS,10aR,10bS,11S,12aS)-7-(4-Fluorophenyl)-11-hydroxy-{[(methoxy-methyl)thio]carbonyl}-10a,12a-dimethyl-1,2,3,3a,3b,4,5,7,10,10a,10b,11,12,12a-tetradecahydrocyclopenta[5,6]naphtho[1,2-f]indazol-1-yl propanoate] | 8.44 |
| CCC(=O)O[C@]1(C(=O)SCCO)CC[C@H]2[C@@H]3CCC4=Cc5c(cnn5-c5ccc(F)cc5)C[C@]4(C)[C@H]3[C@@H](O)C[C@@]21C [Example 15, (1R,3aS,3bS,10aR,10bS,11S,12aS)-7-(4-Fluorophenyl)-11-hydroxy-1-{[(2-hydroxyethyl)thio]carbonyl}-10a,12a-dimethyl-1,2,3,3a,3b,4,5,7,10,10a,10b,11,12,12a-tetradecahydropcyclopenta[5,6]naphtho[1,2-f]indazol-1-yl propanoate] | 8.43 |
| CCC(=O)O[C@]1(C(=O)SCCC#N)CC[C@H]2[C@@H]3CCC4=Cc5c(cnn5-c5ccc(F)cc5)C[C@]4(C)[C@H]3[C@@H](O)C[C@@]21C [Example 16, (1R,3aS,3bS,10aR,10bS,11S,12aS)-{[(2-Cyanoethyl)thio]carbonyl}-7-(4-fluoro-phenyl)-11-hydroxy-10a,12a-dimethyl-1,2,3,3a,3b,4,5,7,10,10a,10b,11,12,12a-tetradecahydrocyclopenta[5,6]naphtho[1,2-f]indazol-1-yl propanoate] | 8.47 |
| CCC(=O)O[C@]1(C(=O)SCC(C)=O)CC[C@H]2[C@@H]3CCC4=Cc5c(cnn5-c5ccc(F)cc5)C[C@]4(C)[C@H]3[C@@H](O)C[C@@]21C [Example 17, (1R,3aS,3bS,10aR,10bS,11S,12aS)-7-(4-Fluorophenyl)-11-hydroxy-10a,12a-dimethyl-1-{[(2-oxopropyl)thio]carbonyl}-1,2,3,3a,3b,4,5,7,10,10a,10b,11,12,12a-tetradecaphydrocyclopenta[5,6]naphtho[1,2-f]indazol-1-yl propanoate] | 8.32 |
| CCC(=O)O[C@]1(C(=O)SCC#CCO)CC[C@H]2[C@@H]3CCC4=Cc5c(cnn5-c5ccc(F)cc5)C[C@]4(C)[C@H]3[C@@H](O)C[C@@]21C [Example 18, (1R,3aS,3bS,10aR,10bS,11S,12aS)-7-(4-Fluorophenyl)-11-hydroxy-1-{[(4-hydroxy-but-2-yn-1-yl)thio]carbonyl}-10a,12a-dimethyl-1,2,3,3a,3b,4,5,7,10,10a,10b,11,12,12a-tetradecahydrocyclopenta[5,6]naphtho[1,2-f]indazol-1-yl propanoate] | 8.39 |
| CCC(=O)O[C@]1(C(=O)SCF)CC[C@H]2[C@@H]3CCC4=Cc5c(cnn5-c5ccc(F)cc5)C[C@]4(C)[C@H]3[C@@H](O)C[C@@]21C [Example 19, (1R,3aS,3bS,10aR,10bS,11S,12aS)-1-{[(Fluoromethyl)thio]carbonyl}-7-(4-fluoro-phenyl)-11-hydroxy-10a,12a-dimethyl-1,2,3,3a,3b,4,5,7,10,10a,10b,11,12,12a-tetradecahydrocyclopenta[5,6]naphtho[1,2-f]indazol-1-yl propanoate] | 8.43 |
| C#CCSC(=O)[C@@]1(OC(=O)CC)CC[C@H]2[C@@H]3CCC4=Cc5c(cnn5-c5ccc(F)cc5)C[C@]4(C)[C@H]3[C@@H](O)C[C@@]21C [Example 20, (1R,3aS,3bS,10aR,10bS,11S,12aS)-7-(4-fluorophenyl)-11-hydroxy-10a,12a-dimethyl-1-[(prop-2-yn-1-ylthio)carbonyl]-1,2,3,3a,3b,4,5,7,10,10a,10b,11,12,12a-tetradecaphydrocyclopenta[5,6]naphtho[1,2-f]indazol-1-yl propanoate] | 8.11 |
| CCC(=O)O[C@]1(C(=O)SC)CC[C@H]2[C@@H]3CCC4=Cc5c(cnn5-c5ccc(F)cc5)C[C@]4(C)[C@H]3[C@@H](O)C[C@@]21C [Example 21, (1R,3aS,3bS,10aR,10bS,11S,12aS)-7-(4-Fluorophenyl)-11-hydroxy-10a,12a-dimethyl-1-[(methylthio)carbonyl]-1,2,3,3a,3b,4,5,7,10,10a,10b,11,12,12a-tetradecahydropcyclopenta[5,6]naphtho[1,2-f]indazol-1-yl propanoate] | 8.57 |
| CCC(=O)O[C@]1(C(=O)SCC(=O)N(C)C)CC[C@H]2[C@@H]3CCC4=Cc5c(cnn5-c5ccc(F)cc5)C[C@]4(C)[C@H]3[C@@H](O)C[C@@]21C [Example 22, (1R,3aS,3bS,10aR,10bS,11S,12aS)-1-({[2-(Dimethylamino)-2-oxoethyl]thio}carbonyl)-7-(4-fluorophenyl)-11-hydroxy-10a,12a-dimethyl-1,2,3,3a,3b,4,5,7,10,10a,10b,11,12,12a-tetradecahydrocyclopenta[5,6]naphtho[1,2-f]indazol-1-yl propanoate] | 8.41 |
| C=CCSC(=O)[C@@]1(OC(=O)CC)CC[C@H]2[C@@H]3CCC4=Cc5c(cnn5-c5ccc(F)cc5)C[C@]4(C)[C@H]3[C@@H](O)C[C@@]21C [Example 23, (1R,3aS,3bS,10aR,10bS,11S,12aS)-7-(4-Fluorophenyl)-11-hydroxy-10a,12a-dimethyl-1-[(prop-2-en-1-ylthio)carbonyl]-1,2,3,3a,3b,4,5,7,10,10a,10b,11,12,12a-tetradecahydropcyclopenta[5,6]naphtho[1,2-f]indazol-1-yl propanoate] | 7.89 |
| CCC(=O)O[C@]1(C(=O)SCCCO)CC[C@H]2[C@@H]3CCC4=Cc5c(cnn5-c5ccc(F)cc5)C[C@]4(C)[C@H]3[C@@H](O)C[C@@]21C [Example 24, (1R,3aS,3bS,10aR,10bS,11S,12aS)-7-(4-Fluorophenyl)-11-hydroxy-1-{[(3-hydroxy-propyl)thio]carbonyl}-10a,12a-dimethyl-1,2,3,3a,3b,4,5,7,10,10a,10b,11,12,12a-tetradecahydrocyclopenta[5,6]naphtho[1,2-f]indazol-1-yl propanoate] | 8.29 |
| CCC(=O)O[C@]1(C(=O)SCC2CC2)CC[C@H]2[C@@H]3CCC4=Cc5c(cnn5-c5ccc(F)cc5)C[C@]4(C)[C@H]3[C@@H](O)C[C@@]21C [Example 25, (1R,3aS,3bS,10aR,10bS,11S,12aS)-1-{[(Cyclopropylmethyl)thio]carbonyl}-7-(4-fluorophenyl)-11-hydroxy-10a,12a-dimethyl-1,2,3,3a,3b,4,5,7,10,10a,10b,11,12,12a-tetradecahydrocyclopenta[5,6]naphtho[1,2-f]indazol-1-yl propanoate] | 8.00 |
| CCC(=O)O[C@]1(C(=O)SCCF)CC[C@H]2[C@@H]3CCC4=Cc5c(cnn5-c5ccc(F)cc5)C[C@]4(C)[C@H]3[C@@H](O)C[C@@]21C [Example 26, (1R,3aS,3bS,10aR,10bS,11S,12aS)-1-{[(2-Fluoroethyl)thio]carbonyl}-7-(4-fluoro-phenyl)-11-hydroxy-10a,12a-dimethyl-1,2,3,3a,3b,4,5,7,10,10a,10b,11,12,12a-tetradecahydrocyclopenta[5,6]naphtho[1,2-f]indazol-1-yl propanoate] | 8.37 |

From patent US8163724B2, “Glucocorticosteroids, processes for their preparation, pharmaceutical compositions containing them and their use in therapy” (AstraZeneca AB, priority 2007, dated 2012)
